# US20200239530A1, “COMPOUNDS AND METHODS OF MODULATING PROTEIN DEGRADATION” (Vividion Therapeutics, Inc., priority 2017, published 2020)
# What was measured:
# Assay in all cases: Cysteine liganding, probe competition
# Assay type in all cases: binding
# [1] = target: T1, AGPAT6 Glycerol-3-phosphate acyltransferase 4 (Homo sapiens, UniProt Q86UL3); details: for Liganded: AGPAT6 Res# 325, uniprot Q86UL3
# T1 construct: Cells were resuspended in cold PBS on ice and sonicated with a probe sonicator to achieve lysis; endogenous in cells
# T1 sequence (Q86UL3 38-456): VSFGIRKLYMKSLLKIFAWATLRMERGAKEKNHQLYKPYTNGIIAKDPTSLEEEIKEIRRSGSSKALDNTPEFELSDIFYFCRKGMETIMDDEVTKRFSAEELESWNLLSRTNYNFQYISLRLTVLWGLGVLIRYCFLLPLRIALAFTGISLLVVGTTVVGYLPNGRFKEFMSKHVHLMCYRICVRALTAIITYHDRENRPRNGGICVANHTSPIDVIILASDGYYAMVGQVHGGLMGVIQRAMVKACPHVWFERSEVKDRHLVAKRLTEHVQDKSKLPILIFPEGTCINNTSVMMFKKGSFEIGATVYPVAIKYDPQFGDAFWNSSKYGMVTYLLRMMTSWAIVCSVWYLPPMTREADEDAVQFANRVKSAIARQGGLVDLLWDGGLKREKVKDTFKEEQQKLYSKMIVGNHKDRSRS
# Procedure, shortened: (§1)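 Lysates from probe-sonicated cells in PBS (5 mg/ml proteome) were exposed to compound for 1 hr at 25° C, then labelled with desthiobiotin iodoacetamide probe (10 mM stock) for 1 hr at 25° C. Probe-tagged peptides were streptavidin-enriched after trypsin digestion.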
# [2] = target: T2, ANKRD54 Ankyrin repeat domain-containing protein 54 (Homo sapiens, UniProt Q6NXT1)
# T2 construct: 200 μL of lysate containing 5 mg/ml proteome was treated with 2 μL of 100× compound stock; endogenous in cells
# Procedure, shortened: as §1
# [3] = target: T3, CDK16 Cyclin-dependent kinase 16 (Homo sapiens, UniProt Q00536); details: for Liganded: CDK16 Res# 206, uniprot Q00536
# T3 construct: 200 μL of lysate containing 5 mg/ml proteome was treated with 2 μL of 100× compound stock; endogenous in cells
# Procedure, shortened: as §1
# [4] = target: T4, FASN Fatty acid synthase (Homo sapiens, UniProt P49327)
# T4 construct: 200 μL of lysate containing 5 mg/ml proteome was treated with 2 μL of 100× compound stock; endogenous in cells
# Procedure, shortened: as §1
# [5] = target: T5, HUWE1 E3 ubiquitin-protein ligase HUWE1 (Homo sapiens, UniProt Q7Z6Z7)
# T5 construct: Cells were resuspended in cold PBS on ice and sonicated with a probe sonicator to achieve lysis; endogenous in cells
# Procedure, shortened: as §1
# T3 sequence (Q00536 whole entry): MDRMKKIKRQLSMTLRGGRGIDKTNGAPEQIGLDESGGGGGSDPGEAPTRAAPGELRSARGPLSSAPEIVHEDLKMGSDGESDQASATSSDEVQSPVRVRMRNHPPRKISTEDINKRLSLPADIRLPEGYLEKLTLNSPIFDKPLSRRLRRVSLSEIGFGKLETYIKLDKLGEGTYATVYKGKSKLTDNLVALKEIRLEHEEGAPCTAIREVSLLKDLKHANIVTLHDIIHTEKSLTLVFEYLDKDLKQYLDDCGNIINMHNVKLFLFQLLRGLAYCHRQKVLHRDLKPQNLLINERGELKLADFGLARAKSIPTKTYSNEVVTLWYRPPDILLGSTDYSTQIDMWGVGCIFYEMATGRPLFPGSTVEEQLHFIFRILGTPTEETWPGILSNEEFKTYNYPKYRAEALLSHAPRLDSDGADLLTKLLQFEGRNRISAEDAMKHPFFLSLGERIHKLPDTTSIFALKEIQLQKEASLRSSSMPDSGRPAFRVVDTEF
# T2 sequence (Q6NXT1 whole entry, the tested form may be a part): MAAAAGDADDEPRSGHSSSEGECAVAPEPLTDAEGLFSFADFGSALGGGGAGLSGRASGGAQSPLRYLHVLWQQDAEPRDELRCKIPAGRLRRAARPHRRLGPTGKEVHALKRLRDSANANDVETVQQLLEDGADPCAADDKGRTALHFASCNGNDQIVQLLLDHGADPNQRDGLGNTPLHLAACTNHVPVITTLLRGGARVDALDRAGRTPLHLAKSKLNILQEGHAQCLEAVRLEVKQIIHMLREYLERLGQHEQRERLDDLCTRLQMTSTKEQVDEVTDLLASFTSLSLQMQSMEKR
# T5 sequence (Q7Z6Z7 whole entry): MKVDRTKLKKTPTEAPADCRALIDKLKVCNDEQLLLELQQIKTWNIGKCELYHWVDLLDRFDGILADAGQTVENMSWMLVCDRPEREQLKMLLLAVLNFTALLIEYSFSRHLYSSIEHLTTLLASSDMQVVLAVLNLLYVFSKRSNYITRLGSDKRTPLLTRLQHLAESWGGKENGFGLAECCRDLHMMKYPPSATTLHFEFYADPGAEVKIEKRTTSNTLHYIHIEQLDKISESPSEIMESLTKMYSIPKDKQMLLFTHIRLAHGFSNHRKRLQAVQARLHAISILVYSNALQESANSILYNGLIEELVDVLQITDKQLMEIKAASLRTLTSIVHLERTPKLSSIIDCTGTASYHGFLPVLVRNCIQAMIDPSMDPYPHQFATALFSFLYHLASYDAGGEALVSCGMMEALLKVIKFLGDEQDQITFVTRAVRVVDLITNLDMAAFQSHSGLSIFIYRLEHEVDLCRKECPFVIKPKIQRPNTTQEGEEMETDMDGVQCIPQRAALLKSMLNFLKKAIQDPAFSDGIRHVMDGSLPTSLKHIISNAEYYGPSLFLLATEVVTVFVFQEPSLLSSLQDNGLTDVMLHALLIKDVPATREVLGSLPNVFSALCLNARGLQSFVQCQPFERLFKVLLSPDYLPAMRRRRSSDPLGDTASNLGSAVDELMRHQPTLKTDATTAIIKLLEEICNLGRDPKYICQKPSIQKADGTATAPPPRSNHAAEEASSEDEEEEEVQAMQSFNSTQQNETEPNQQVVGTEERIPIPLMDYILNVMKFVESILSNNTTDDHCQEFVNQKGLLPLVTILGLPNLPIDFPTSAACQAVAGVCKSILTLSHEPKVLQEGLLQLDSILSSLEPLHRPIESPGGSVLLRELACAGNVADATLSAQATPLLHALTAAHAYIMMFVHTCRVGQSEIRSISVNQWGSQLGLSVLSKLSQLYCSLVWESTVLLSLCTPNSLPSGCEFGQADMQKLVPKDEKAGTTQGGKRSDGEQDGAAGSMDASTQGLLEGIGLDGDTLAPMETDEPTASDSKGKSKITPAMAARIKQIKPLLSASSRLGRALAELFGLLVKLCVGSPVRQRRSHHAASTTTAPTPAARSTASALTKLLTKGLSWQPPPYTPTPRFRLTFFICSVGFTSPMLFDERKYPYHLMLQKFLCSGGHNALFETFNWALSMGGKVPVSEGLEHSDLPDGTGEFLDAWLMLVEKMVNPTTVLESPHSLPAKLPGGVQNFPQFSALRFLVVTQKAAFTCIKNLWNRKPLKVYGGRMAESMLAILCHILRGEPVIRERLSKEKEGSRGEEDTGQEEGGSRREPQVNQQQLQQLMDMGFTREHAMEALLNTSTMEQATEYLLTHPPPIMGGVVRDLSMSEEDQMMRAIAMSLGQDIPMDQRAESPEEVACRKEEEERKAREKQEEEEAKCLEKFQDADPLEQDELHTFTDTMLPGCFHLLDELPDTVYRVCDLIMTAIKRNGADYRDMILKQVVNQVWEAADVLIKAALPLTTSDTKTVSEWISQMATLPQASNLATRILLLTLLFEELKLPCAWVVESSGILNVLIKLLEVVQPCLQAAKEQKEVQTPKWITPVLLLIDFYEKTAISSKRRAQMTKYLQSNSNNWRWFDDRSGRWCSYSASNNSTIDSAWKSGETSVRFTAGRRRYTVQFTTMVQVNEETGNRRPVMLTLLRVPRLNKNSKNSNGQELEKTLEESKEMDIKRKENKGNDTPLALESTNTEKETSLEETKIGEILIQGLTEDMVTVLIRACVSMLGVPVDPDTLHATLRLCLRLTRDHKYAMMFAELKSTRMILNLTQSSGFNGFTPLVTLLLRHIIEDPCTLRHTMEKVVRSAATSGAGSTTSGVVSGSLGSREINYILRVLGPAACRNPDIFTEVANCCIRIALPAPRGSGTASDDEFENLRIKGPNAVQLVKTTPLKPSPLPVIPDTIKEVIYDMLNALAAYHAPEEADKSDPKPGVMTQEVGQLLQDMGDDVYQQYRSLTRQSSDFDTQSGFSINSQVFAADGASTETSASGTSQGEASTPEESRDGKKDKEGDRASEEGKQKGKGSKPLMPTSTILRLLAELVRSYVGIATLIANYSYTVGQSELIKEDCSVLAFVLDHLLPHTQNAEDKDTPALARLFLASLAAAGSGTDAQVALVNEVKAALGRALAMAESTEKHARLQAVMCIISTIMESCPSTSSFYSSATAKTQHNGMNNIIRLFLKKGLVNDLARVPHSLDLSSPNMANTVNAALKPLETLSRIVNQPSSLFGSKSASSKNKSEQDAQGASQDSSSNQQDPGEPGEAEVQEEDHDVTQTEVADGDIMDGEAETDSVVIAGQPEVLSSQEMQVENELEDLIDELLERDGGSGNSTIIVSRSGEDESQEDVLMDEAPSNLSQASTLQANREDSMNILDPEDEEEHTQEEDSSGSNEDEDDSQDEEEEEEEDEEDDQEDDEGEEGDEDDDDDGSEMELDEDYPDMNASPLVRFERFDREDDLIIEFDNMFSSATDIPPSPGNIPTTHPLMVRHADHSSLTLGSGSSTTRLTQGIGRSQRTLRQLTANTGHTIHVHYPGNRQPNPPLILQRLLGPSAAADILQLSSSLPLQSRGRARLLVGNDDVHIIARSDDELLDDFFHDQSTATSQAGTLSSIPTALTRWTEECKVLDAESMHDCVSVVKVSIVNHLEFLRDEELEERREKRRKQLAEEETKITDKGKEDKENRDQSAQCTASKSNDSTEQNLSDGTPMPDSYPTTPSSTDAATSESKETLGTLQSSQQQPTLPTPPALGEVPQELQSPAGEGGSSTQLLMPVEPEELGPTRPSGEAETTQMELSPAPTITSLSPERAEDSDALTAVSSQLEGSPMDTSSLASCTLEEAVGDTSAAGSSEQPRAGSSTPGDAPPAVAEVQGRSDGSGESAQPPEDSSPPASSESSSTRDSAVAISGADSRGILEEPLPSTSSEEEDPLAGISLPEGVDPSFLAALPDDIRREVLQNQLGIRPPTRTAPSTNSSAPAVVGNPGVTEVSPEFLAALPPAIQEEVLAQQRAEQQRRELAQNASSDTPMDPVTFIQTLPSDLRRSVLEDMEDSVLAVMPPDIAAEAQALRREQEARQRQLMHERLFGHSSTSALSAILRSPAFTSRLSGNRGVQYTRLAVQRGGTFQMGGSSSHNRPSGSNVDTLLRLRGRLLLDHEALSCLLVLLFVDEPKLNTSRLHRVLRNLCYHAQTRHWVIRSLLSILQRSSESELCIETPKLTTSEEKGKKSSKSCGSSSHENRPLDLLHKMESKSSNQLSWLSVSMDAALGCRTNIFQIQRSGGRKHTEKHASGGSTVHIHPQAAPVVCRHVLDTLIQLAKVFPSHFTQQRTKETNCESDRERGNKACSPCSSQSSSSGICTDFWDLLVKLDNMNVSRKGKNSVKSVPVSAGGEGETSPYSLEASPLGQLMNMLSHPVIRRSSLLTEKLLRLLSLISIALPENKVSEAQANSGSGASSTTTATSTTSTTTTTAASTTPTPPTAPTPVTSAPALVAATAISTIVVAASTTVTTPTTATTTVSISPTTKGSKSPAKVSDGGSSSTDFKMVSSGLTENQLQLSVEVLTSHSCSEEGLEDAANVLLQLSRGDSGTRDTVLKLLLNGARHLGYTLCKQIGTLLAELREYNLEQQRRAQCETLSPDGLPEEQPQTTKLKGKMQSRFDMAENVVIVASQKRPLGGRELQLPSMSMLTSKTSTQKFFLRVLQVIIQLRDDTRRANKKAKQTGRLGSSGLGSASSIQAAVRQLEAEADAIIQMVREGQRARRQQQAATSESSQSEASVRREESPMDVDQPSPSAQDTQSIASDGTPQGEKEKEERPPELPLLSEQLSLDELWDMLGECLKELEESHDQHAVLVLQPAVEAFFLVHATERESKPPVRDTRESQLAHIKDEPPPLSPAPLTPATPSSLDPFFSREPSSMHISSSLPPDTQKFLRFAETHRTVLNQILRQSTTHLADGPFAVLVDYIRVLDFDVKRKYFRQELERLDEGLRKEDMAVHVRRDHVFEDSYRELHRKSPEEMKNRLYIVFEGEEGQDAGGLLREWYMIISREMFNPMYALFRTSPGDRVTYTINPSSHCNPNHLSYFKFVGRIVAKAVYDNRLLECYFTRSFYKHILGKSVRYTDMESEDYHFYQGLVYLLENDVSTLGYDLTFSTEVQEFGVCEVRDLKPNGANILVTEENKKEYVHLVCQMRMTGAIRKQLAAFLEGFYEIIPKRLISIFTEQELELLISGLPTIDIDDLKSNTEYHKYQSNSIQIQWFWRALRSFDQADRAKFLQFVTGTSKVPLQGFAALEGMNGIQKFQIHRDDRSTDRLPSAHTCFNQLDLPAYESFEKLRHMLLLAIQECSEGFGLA
structure (smiles),measurement,setting,value
COc1ccc2c(c1)CCCN2C(=O)CCl [KB02],Liganded,[1],YES
same,Liganded,"[2]; ANKRD54 Res# 230, uniprot Q6NXT1",YES
same,Liganded,[3],YES
same,Liganded,"[4]; FASN Res# 161, uniprot P49327",YES
same,Liganded,"[5]; HUWE1 Res# 2181, uniprot Q7Z6Z7",YES
O=C(CCl)Nc1cc(C(F)(F)F)cc(C(F)(F)F)c1 [KBO3],Liganded,[1],YES
same,100 Max,[1]; uniprot Q86UL3,66.91
same,100 ave,[1]; uniprot Q86UL3,65.705
same,500 Max,[1]; uniprot Q86UL3,85.19
same,500 ave,[1]; uniprot Q86UL3,85.19
same,100 Max,[2]; uniprot Q6NXT1,7.02
same,100 ave,[2]; uniprot Q6NXT1,−0.72
same,500 Max,[2]; uniprot Q6NXT1,45.29
same,500 ave,[2]; uniprot Q6NXT1,44.21
same,Liganded,[3],YES
same,100 Max,[3]; uniprot Q00536,50.67
same,100 ave,[3]; uniprot Q00536,28.2075
same,500 ave,[3]; uniprot Q00536,79.225
same,500 Max,"[3]; uniprot Q00536, in % (unit assumed)",80.44
same,100 Max,[4]; uniprot P49327,−26.25
same,100 ave,[4]; uniprot P49327,−26.25
same,100 ave,[5]; uniprot Q7Z6Z7,9.7
same,100 Max,"[5]; uniprot Q7Z6Z7, unit assumed",9.7%
